The test addresses Serine/threonine-protein phosphatase PP1-alpha catalytic subunit (Homo sapiens) (UniProt P62136). The test can be described thus: PP1 inhibitors, OMFP dephosphorylation, confirmation, biochemical, fluorescence, OMFP substrate, powder samples, set 2 (AID 652218). To be noted: purified PP1alpha, at 50 µM, hits give high values.

The source made the active and inactive calls.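 Rule for the calls: active = inhibition of the phosphatase PP1 of at least 70% at 50 µM; inactive = the rest.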

The inhibition is the relative decrease from the control value, in per cent.

Chain of Serine/threonine-protein phosphatase PP1-alpha catalytic subunit (Homo sapiens) (P62136 whole entry, looked up): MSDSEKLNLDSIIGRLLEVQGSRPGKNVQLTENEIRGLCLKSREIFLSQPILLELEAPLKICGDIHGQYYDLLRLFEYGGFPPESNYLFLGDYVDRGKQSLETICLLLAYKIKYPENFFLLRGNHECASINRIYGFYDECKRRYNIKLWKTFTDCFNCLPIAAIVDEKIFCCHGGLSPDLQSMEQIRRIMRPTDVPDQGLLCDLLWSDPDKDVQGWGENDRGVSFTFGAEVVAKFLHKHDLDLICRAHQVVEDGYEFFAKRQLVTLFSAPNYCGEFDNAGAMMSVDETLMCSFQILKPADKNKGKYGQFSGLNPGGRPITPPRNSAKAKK

Take `CN1CCN(C(c2ccccn2)c2cc(Cl)ccc2O)CC1` (stereo unspecified): the inhibition was 6.19% (inactive). The result for `CCN1CCN(C(c2ccccn2)c2cc(Cl)c3cccnc3c2O)CC1` (stereo unspecified) reads 98.4%; that for `CN1CCN(C(c2ccc3cccnc3c2O)c2ncccc2C(F)(F)F)CC1` (stereo unspecified), 102%.

For `CN1CCN(C(c2ccc(C(F)(F)F)cn2)c2ccc3cccnc3c2O)CC1` (stereo unspecified), the inhibition is 99.8%. The result for `COc1cccc(C(c2ccc3cccnc3c2O)N2CCN(C)CC2)n1` (stereo unspecified) reads 107%; that for `Oc1c(C(NC2CCCCC2)c2ccccn2)ccc2cccnc12` (stereo unspecified), 106%; that for `Oc1c(C(c2ccccn2)N2CCOCC2)cc(Cl)c2cccnc12` (stereo unspecified), 105%.

Consider `COc1ccc(C(c2ccc3cccnc3c2O)N2CCN(C)CC2)nc1` (stereo unspecified), for which the inhibition was 97.9%. The result for `CN1CCC(NC(c2ccccn2)c2ccc3cccnc3c2O)CC1` (stereo unspecified) reads 97.3%; that for `CN1CCN(C(c2ccccn2)c2cc(Cl)c3ccccc3c2O)CC1` (stereo unspecified), 27.2% (inactive). In the case of `Oc1c(CN2CCN(c3ccccc3)CC2)cc(Cl)c2cccnc12`, the inhibition is 100%. The same measure for `CN1CCN(C(c2ccncc2)c2cc(Cl)c3cccnc3c2O)CC1` (stereo unspecified): 45% (inactive). As for `CN1CCN(Cc2cc(Cl)c3cccnc3c2O)CC1`, the inhibition was 73.1%. Turning to `Oc1c(C(c2ccccn2)N2CCNCC2)cc(Cl)c2cccnc12` (stereo unspecified), the inhibition is 83.5%. The result for `Cc1ccc2ccc(C(c3ccccn3)N3CCN(C)CC3)c(O)c2n1` (stereo unspecified) reads 101%; that for `Cc1cccnc1C(c1ccc2cccnc2c1O)N1CCN(C)CC1` (stereo unspecified), 99.9%; that for `COCOc1c(C(c2ccccn2)N2CCN(C)CC2)ccc2cccnc12` (stereo unspecified), 66.1% (inactive). As for `Cc1cccc(C(c2ccc3cccnc3c2O)N2CCN(C)CC2)n1` (stereo unspecified), the inhibition is 103%. For `CN1CCN(C(c2ccccc2)c2cc(Cl)c3cccnc3c2O)CC1` (stereo unspecified), the inhibition was 79.1%.

As for `CN1CCN(C(c2cccnc2)c2cc(Cl)c3cccnc3c2O)CC1` (stereo unspecified), the inhibition was 40% (inactive). The same measure for `CN1CCN(C(c2nccs2)c2cc(Cl)c3cccnc3c2O)CC1` (stereo unspecified): 103%; for `COc1ccnc(C(c2ccc3cccnc3c2O)N2CCN(C)CC2)c1` (stereo unspecified): 104%. The result for `CCOC(c1ccccn1)c1cc(Cl)c2cccnc2c1O` (stereo unspecified) reads 99%; that for `CC(C)(C)OC(=O)N1CCN(C(c2ccccn2)c2cc(Cl)c3cccnc3c2O)CC1` (stereo unspecified), 90.5%.

Turning to `CN1CCN(C(c2ncccn2)c2ccc3cccnc3c2O)CC1` (stereo unspecified), the inhibition was 93.8%.

Turning to `CN1CCN(C(c2ccccn2)c2ccc3cccnc3c2O)CC1` (stereo unspecified), the inhibition is 100%. The result for `Oc1c(CN2CCN(c3ccccn3)CC2)cc(Cl)c2cccnc12` reads 102%.

For `CN1CCN(C(c2ccccn2)c2cc(Cl)c3cccnc3c2O)CC1` (stereo unspecified), the inhibition was 98.4%. The result for `Oc1c(C(c2ccccn2)N2CCN(c3ccccc3F)CC2)cc(Cl)c2cccnc12` (stereo unspecified) reads 101%; that for `Oc1c(C(c2ccccn2)N2CCC(Cc3ccccc3)CC2)cc(Cl)c2cccnc12` (stereo unspecified), 89.3%. Consider `CC1CCN(C(c2ccccn2)c2cc(Cl)c3cccnc3c2O)CC1` (stereo unspecified), for which the inhibition is 104%. The result for `Cc1ccc(C(c2ccc3cccnc3c2O)N2CCN(C)CC2)nc1` (stereo unspecified) reads 104%; that for `Oc1c(C(c2ccccn2)N2CCCC2)ccc2cccnc12` (stereo unspecified), 107%; that for `Cc1ccnc(C(c2ccc3cccnc3c2O)N2CCN(C)CC2)c1` (stereo unspecified), 104%. For `Oc1c(Cc2ccccn2)ccc2cccnc12`, the inhibition was 102%. In the case of `CN1CCN(C(c2cccs2)c2cc(Cl)c3cccnc3c2O)CC1` (stereo unspecified), the inhibition is 88.6%.

These data come from PubChem BioAssay AID652218 (The Scripps Research Institute Molecular Screening Center, 2013).
